Source: paper PMC5004831, “Molecular and biochemical characterization of carbonic anhydrases of Paracoccidioides” (Genetics and Molecular Biology, 2016)

Experiments:
[1] = molecular target: T1, rCA4 (CA4), alpha-class carbonic anhydrase of Paracoccidioides (Paracoccidioides brasiliensis, UniProt B1PIT4); assay: CO2 hydration, electrometric (Wilbur-Anderson); type: biochemical; details: read-out: CA4- Residual Activity (%)
T1 construct: 32 kDa
T1 sequence (B1PIT4 1-301): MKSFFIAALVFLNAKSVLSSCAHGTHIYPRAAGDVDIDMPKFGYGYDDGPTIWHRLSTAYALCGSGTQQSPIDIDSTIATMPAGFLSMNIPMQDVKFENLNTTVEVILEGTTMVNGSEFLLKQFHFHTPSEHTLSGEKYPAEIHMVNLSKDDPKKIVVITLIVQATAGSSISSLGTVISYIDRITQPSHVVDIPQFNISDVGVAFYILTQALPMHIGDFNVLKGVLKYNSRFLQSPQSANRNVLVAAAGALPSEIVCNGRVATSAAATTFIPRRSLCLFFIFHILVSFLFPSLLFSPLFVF
Source text: CO2 hydration, electrometric (Wilbur-Anderson) on rCA4 (CA4), alpha-class carbonic anhydrase of Paracoccidioides

[2] = molecular target: T2, rCA1 (CA1), beta-class carbonic anhydrase of Paracoccidioides (Paracoccidioides lutzii, UniProt C1H4M3); assay: CO2 hydration, electrometric (Wilbur-Anderson); type: biochemical; details: read-out: CA1- Residual Activity (%)
T2 construct: gene PAAG_05716; complete cDNA, 282 residues, GST fusion (pGEX-4T-3) from E. coli, GST cut by thrombin; 33 kDa
T2 sequence (C1H4M3 1-282): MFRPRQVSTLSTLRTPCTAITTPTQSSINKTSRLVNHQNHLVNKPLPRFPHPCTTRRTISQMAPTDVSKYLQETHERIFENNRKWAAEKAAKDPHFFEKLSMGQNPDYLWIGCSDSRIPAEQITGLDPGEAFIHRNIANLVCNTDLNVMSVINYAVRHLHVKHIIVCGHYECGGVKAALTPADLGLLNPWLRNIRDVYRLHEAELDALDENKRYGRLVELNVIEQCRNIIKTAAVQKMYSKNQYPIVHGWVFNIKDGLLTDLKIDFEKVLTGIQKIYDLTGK
Source text: CO2 hydration, electrometric (Wilbur-Anderson) on rCA1 (CA1), beta-class carbonic anhydrase of Paracoccidioides

Structure (SMILES)	remaining activity at 25 µM [1] [%]	remaining activity at 25 µM [2] [%]
N=C(N)NCCC[C@H](N)C(=O)O [L-Arg]	132	130
N[C@@H](Cc1cnc[nH]1)C(=O)O [L-His]	152	142
NCCCC[C@H](N)C(=O)O [L-Lys]	140	138
N[C@@H](Cc1c[nH]c2ccccc12)C(=O)O [L-Trp]	158	162
